Experimental data as given in patent US6063782A, “Pyrrolopyridazine derivatives” (Sankyo Company, Limited, priority 1994, dated 2000).

What was measured:
[1] = molecular target: proton.potassium-adenosine triphosphatase (H+.K+-ATPase) (Sus scrofa, UniProt P19156); experiment: Proton.potassium-adenosine triphosphatase (H+.K+-ATPase) inhibition test; format: biochemical; details: microsomal fraction of porcine gastric mucosa, pH=6.85, 37° C.; result given in words only
Method: Proton.potassium-adenosine triphosphatase (H^+.K^+ -ATPase) activation test
According to the method reported by Sachs et al. [J. Biol. Chem., 251, 7690 (1976)], a microsomal fraction obtained from homogenized fresh porcine gastric mucosa by density gradient ultracentrifugation was used as the proton.potassium-adenosine triphosphatase preparation, 10 μl of a solution of a test compound in dimethylsulfoxide were added to 0.75 ml of 70 mM tris-HCl buffer solution (magnesium chloride 5 mM, potassium chloride 20 mM and pH=6.85) containing from 30 to 80 μg/ml (in terms of protein concentration) of the enzyme preparation and the mixture was incubated for 45 minutes at 37° C. with shaking at 200 times per minute. The enzyme reaction was initiated by adding 0.25 ml of 8 mM disodium adenosine triphosphate solution. After 20 minutes of the reaction time, the reaction was stopped by adding 1 ml of a 10k trichloroacetic acid-active carbon (100 mg) solution. The reaction solution was centrifuged (4° C., 3000 rpm, 15 minutes) and the inorganic phosphate in the supernatant prepared from adenosine triphosphate by hydrolysis was measured by colorimetry, according to the method of Yoda and Hokin [Biochem. Biophys. Res. Commun., 40, 880 (1970)]. In a similar manner, the amount of inorganic phosphate was measured in a reaction solution in the absence of potassium chloride. From the difference between the phosphate amounts in the presence and absence of potassium chloride, the proton-potassium-adenosine triphosphatase activity was calculated. Based on the activity value in the control and the values in the test compound at the various concentrations tested, the inhibiting rates (%) and then the 50? inhibiting concentrations (IC50) to proton.potassium-adenosine triphosphatase activity were obtained.

[2] = test system: gastric acid secretion; experiment: Gastric acid secretion activity test using pyloric ligation in rats (Shay rat method); format: in vivo; details: male SD rats, 20 mg/kg injected into the duodenal region, 4 hours, result given in words only
Method: Gastric acid secretion activity test using pyloric ligation in rats (Shay rat method)
Pyloric ligation was conducted based on the method of Shay et al. [Gastroenterology, 5, 43 (1945)]. Male rats of SD strain were fasted for 24 hours; their abdomens were sectioned during anesthesia under ether. The duodenal and pyloric regions were exposed and the latter was ligated. A solution of a test compound (10 mg/ml) prepared by use of 1.5w parts of dimethylacetamide, 68.5% parts of polyethyleneglycol (PEG-400) and 30% parts of physiological saline solution, was injected into the duodenal region for the dose to be 20 mg/kg by use of a 1-ml syringe and an injection needle (26G). After injection of the test compound, the abdominal region was sutured. The animals were allowed to a stand for 4 hours without feeding food and water and then sacrified with carbon dioxide gas. The stomach was excised and gastric juice was gathered. The gastric juice sample was centrifuged (4° C., 2500 rpm, 15 minutes). The amount of the supernatant was measured to be as the gastric secretion. The acidity of the gastric juice was determined by the amount (ml) of 0.01 N sodium hydroxide solution required for titration of 0.1 ml of the supernatant to pH 7.0 by use of-an auto-titrating apparatus. The value of gastric acid secretion was calculated from the value of gastric secretion and the acidity of gastric juice. The inhibiting rate was obtained from the values of gastric acid secretion of the control group and of the administered group.

[3] = test system: Helicobacter pylori strains 9470, 9472 and 9474; experiment: Antibacterial activity against Helicobacter pylori; format: cell-based; details: strains 9470, 9472 and 9474, 37° C., 3 days, slightly aerobic; result given in words only
Method: Antibacterial activity against Helicobacter pylori The antibacterial activity of the compounds of the present invention were evaluated by measuring the minimum inhibitory concentration values (MIC) of the present compounds against Helicobacter pylori strains 9470, 9472 and 9474. These strains of Helicobacter pylori were incubated for 4 days on a plate medium. The medium was prepared by dissolving brain heart infusion agar (Product of DIFCO) in a defined amount of distilled water, by sterilization in an autoclave, injecting horse blood (Product of Nihon Seibutsu Zairyo Co.) into each plate for the medium to contain 7% of the blood and by solidifying. Under slightly aerobic conditions, Helicobacter pylori cultivated at 37° C. for 4 days was suspended in a physiological saline solution for its inocular size to be about 10^8 CFU/ml. The suspension was diluted 100 times, and about 10 μl of the diluted suspension was inoculated on a medium for MIC determination. The medium for MIC determination used had the same compounds as those for preculture. […] In a similar way to the preculture, Helicobacter pylori was cultivated at 37° C. for 3 days under slightly aerobic conditions. […] The minimum concentration which gave no bacterial growth was regarded as MIC of the compound of the present invention.

Chain of proton.potassium-adenosine triphosphatase (H+.K+-ATPase) (P19156 whole entry): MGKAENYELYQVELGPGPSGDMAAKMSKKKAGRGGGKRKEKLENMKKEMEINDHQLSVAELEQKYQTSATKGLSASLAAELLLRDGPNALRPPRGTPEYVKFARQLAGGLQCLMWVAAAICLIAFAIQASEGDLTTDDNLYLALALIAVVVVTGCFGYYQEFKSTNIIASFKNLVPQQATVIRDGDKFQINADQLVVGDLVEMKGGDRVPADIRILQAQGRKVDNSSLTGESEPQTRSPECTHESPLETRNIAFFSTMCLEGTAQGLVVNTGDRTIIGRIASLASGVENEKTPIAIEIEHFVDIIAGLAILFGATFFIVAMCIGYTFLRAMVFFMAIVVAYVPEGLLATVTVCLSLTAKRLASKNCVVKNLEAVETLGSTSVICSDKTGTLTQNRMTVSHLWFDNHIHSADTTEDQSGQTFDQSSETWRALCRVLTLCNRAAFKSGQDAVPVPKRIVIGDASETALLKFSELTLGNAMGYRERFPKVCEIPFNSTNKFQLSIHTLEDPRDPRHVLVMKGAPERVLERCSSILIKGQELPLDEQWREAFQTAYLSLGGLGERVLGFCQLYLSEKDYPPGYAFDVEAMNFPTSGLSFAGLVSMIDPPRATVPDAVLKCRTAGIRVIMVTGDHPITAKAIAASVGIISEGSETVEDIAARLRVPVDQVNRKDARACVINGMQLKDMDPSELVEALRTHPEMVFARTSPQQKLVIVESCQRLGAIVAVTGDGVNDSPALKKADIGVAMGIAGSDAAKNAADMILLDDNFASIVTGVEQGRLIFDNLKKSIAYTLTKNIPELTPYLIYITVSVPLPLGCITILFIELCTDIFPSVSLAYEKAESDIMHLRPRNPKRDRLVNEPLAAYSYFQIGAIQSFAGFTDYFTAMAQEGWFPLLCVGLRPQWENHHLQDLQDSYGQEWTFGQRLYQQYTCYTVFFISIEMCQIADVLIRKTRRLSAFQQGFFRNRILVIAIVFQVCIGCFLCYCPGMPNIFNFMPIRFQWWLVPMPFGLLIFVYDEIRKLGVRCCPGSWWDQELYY
Chain of proton.potassium-adenosine triphosphatase (H+.K+-ATPase) (P18434 whole entry partner): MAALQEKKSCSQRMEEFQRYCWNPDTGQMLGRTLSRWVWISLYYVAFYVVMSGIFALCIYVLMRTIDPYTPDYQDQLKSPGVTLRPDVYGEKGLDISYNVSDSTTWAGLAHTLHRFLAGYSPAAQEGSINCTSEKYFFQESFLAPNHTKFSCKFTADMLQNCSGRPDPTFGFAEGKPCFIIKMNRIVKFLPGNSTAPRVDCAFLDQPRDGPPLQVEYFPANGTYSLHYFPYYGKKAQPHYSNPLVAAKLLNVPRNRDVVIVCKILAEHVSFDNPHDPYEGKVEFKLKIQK

inhibiting concentrations (IC50) to proton.potassium-adenosine triphosphatase activity [1]: excellent activity
minimum inhibitory concentration (MIC) against Helicobacter pylori [3]: excellent antibacterial activity
SMILES: C/C=C/n1c(C)c(C)c2cnnc(OCc3ccc(F)cc3)c21 [Example 44, 7-(4-Fluorobenzyloxy)-2,3-dimethyl-1-(1-propenyl)-pyrrolo[2,3-d]pyridazine]
inhibiting rate of gastric acid secretion [2]: excellent activity
